Assay [1] deals with vimentin mRNA. Nature of the assay: Quantitative real-time PCR of vimentin mRNA in NB cells. In kind it is cell-based, human. The following applies: 2.5 nM APF alone or with nonsense siRNA, 48 hours, normalized to β-actin. The procedure:
(§1) RNA was assessed by visualization of the 28S/18S ribosomal RNA ratio on a 1% agarose gel, and total RNA concentration determined by measuring the absorbance of each sample at 260 nm and 280 nm using a Gene Quant RNA/DNA Calculator (Pharmacia Biotech). Quantitative real-time PCR for gene expression was performed using Quantitect Primers (Qiagen), SYBR Green RT-PCR kit reagents (Qiagen), and a Roche System II Light-Cycler (software version 3.5). Samples were tested in triplicate runs, and specific mRNA levels quantified and compared to mRNA levels for β-actin using real-time PCR analysis software from Applied Biosystems.
For orientation: Real-time PCR tracks product formation cycle by cycle.

In assay [2] the test system is HeLa cells. Put plainly: 3H-thymidine incorporation (cell proliferation), HeLa cells. The assay is classed as cell-based, human. The following applies: APF 0.25-250 nM, 48 hours, serum starvation. The procedure:
Cell proliferation was measured by 3H-thymidine incorporation into ZDHHC2 siRNA-treated HeLa cells. Briefly, electroporated cells that received ZDHHC2 or control nonsense siRNA were plated into 96 well culture plates and incubated at 37° C. in a 5% CO2 atmosphere for 96 hours. Purified lyophilized synthetic APF was re-suspended in acetonitrile/distilled water (1:1), diluted in serum-free MEM (containing only glutamine and antibiotics/antimycotics), and applied to HeLa cells; cell controls received acetonitrile/distilled water diluted in serum-free MEM alone. Cells were then incubated for an additional 48 hours. The cell contents were harvested and methanol-fixed onto glass fiber filter paper, and the amount of radioactivity incorporated determined. Significant inhibition of ^3H-thymidine incorporation was defined as a mean decrease in counts per minute of greater than 2 standard deviations from the mean of control cells for each plate.
siRNA—Double-stranded siRNA targeting ZDHHC2 (available from GenBank/EMBL/DDBJ under accession no. NM_016353) was purchased from Dharmacon (ON-TARGET plus). […]
^3H-Thymidine Incorporation—Cell proliferation was measured by 3H-thymidine incorporation into the DNA of HeLa or NB epithelial cells. […] The cell contents were harvested and methanol-fixed onto glass fiber filter paper, and the amount of radioactivity incorporated determined. […]
Background: Incorporation of labelled thymidine or its analogues reports DNA synthesis.

The test system of assay [3] is normal primary bladder (NB) epithelial cells. Nature of the assay: 3H-thymidine incorporation (cell proliferation), NB epithelial cells. The assay is classed as cell-based, human. The following applies: APF 0.25-250 nM, 48 hours, serum starvation. The procedure: Normal primary bladder (NB) epithelial cells were isolated from patients as previously described (Conrads et al., 2006; Keay et al., 2000; Keay et al., 2004; Keay et al., 1996). Cells were propagated in DMEM-F12 (Media-Tech) with 10% heat inactivated FBS, 1% antibiotic/antimycotic solution, 1% L-glutamine, 0.25 U/ml insulin (Sigma), and 5 ng/ml human epidermal growth factor (R & D Systems) at 37° C. in a 5% CO2 atmosphere, and characterized by binding of AE-1/AE-3 pancytokeratin antibodies (Signet) as previously described (Keay et al., 1996; Keay et al., 2004).
^3H-Thymidine Incorporation—Cell proliferation was measured by 3H-thymidine incorporation into the DNA of HeLa or NB epithelial cells. […] Cells were then incubated at 37° C. in a 5% CO2 atmosphere for 48 hours. The cell contents were harvested and methanol-fixed onto glass fiber filter paper, and the amount of radioactivity incorporated determined. Significant inhibition of ^3H-thymidine incorporation was defined as a mean decrease in counts per minute of greater than 2 standard deviations from the mean of control cells for each plate.

The test system of assay [4] is ZO-1 mRNA. Nature of the assay: Quantitative real-time PCR of ZO-1 mRNA in NB cells. The following applies: 2.5 nM APF alone or with nonsense siRNA, 48 hours, normalized to β-actin. In kind it is cell-based, human. On the procedure:
as §1

Assay [5] has as its system vimentin. Nature of the assay: Western blot of vimentin protein in HeLa cells. In kind it is cell-based, human. Particulars: APF 20 nM, 48 hours. On the procedure: Western Blot Analysis—Cells were lysed in ice-cold RIPA buffer containing protease inhibitors (Pierce), sonicated, and centrifuged for 15 minutes at 4° C. The supernatant protein concentration was measured using a Folin reagent-based protein assay kit (BioRad). Proteins were separated by electrophoresis using 4-12% NuPAGE Novex Bis-Tris polyacrylamide gels in MOPS running buffer (Invitrogen) and then transferred to nitrocellulose. Membranes were blocked for 2 hours at room temperature in TBST buffer (Tris-buffered saline, pH 7.4, with 0.1% Tween 20) containing 5% nonfat milk and incubated with specific antibodies against vimentin (diluted 1:2000; BD Pharmingen) or ZO-1 (diluted 1:125; Zymed) overnight at 4° C. The membranes were subsequently washed with TBST, incubated for 1 hour at room temperature in HRP-conjugated goat anti-mouse (diluted 1:4000, Santa Cruz Biotechnology) or goat anti-rabbit (diluted 1:10000; Pierce) secondary antibodies, and developed by enhanced chemiluminescence (Pierce). To assess equal loading of protein, the membranes were stripped and reprobed for β-actin (diluted 1:5000; Sigma). […] The protein bands of interest were quantified using ImageJ and the integrated signal densities normalized first to β-actin (the loading control) and subsequently expressed in terms of the fractional abundance relative to untreated control cells.
(In general: A western blot detects proteins with antibodies after separation by electrophoresis.)

Assay [6] has as its system E-cadherin mRNA. Put plainly: Quantitative real-time PCR of E-cadherin mRNA in NB cells. The assay is classed as cell-based, human. The following applies: 2.5 nM APF alone or with nonsense siRNA, 48 hours. The procedure:
as §1

The test system of assay [7] is CKAP4/p63. Nature of the assay: Immunofluorescent localization of CKAP4/p63 in HeLa cells. The following applies: APF 20 nM, 48 hours. In kind it is cell-based, human. The procedure:
Double stranded siRNA targeting ZDHHC2 was purchased from Dharmacon. HeLa cells or cells explanted from IC patients (IC cells) were trypsinized for 10 minutes at room temperature, centrifuged in growth medium (MEM with 10% heat inactivated FBS, 1% antibiotic/antimycotics solution, and 1% L glutamine), and the cell pellet was resuspended in serum-free medium at a density of 1×10^4 cells/ml. One mL of the cell suspension was then transferred to a sterile 2 mm cuvette with 20 μM siRNA, and electroporated at 160 V/500 μF capacitance using a BioRad Gene Pulser Xcell. HeLa cells were then plated onto a 96 well plate for the thymidine incorporation assay, and both HeLa and IC cells were plated onto an 8 well Lab-Tek tissue culture slide for confocal microscopy.
For confocal microscopy, after 96 hours of incubation the medium was removed from the wells and cells were fixed using ethanol/acetone (1:1) for 15 min at room temperature, washed three times with 1×PBS, and incubated with mouse monoclonal anti-CKAP4/p63 antibodies (“anti-CLIMP-63”, clone G1/296; Alexis Biochemicals) in PBS, for 2 hrs at 37° C. Cells were then washed three times with PBS and further incubated with fluorescein isothiocyanate (FITC)-labeled secondary antibody diluted in PBS (goat anti-Mouse IgG 1:2000; Zymed) for 2 hrs at 37° C. […]

Assay [8] concerns bladder epithelial cell. The following applies: cited from earlier work.

As for “Sialoglycopeptide: sialic acid α-2,3 galactose β1-3-N-acetylgalactosamine α-O-linked to N-terminal threonine of Frizzled 8 nonapeptide (TVPAAVVVA) [APF, antiproliferative factor]”, the “reduction of vimentin mRNA levels” value in assay [1] is recorded as roughly 97%. The “inhibition of HeLa cell proliferation (3H-thymidine incorporation)” value in assay [2] is listed as “concentration dependent manner”. Besides, the “inhibition of NB cell proliferation (3H-thymidine incorporation)” value in assay [3] is recorded as “concentration dependent manner”. Moreover, in assay [4], the “reduction of ZO-1 mRNA levels” value is listed as roughly 93%. Besides, the “expression of vimentin following APF treatment” value in assay [5] is listed as “reduced”. Moreover, in assay [6], the “change of E-cadherin mRNA levels” value is “dramatically increased”. In assay [7], the “CKAP4 localization after APF treatment” value is “translocated to the nucleus and nucleolus”. Also, the “EC50 (potency of APF)” value in assay [8] is reported as “picomolar range”.
